Laboratory results taken from patent US7632918B2, “Semi-synthetic glycopeptides with antibiotic activity” (Novartis Vaccines and Diagnostics, Inc., priority 2005, dated 2009).
Converted amounts (≈) assume the structure as drawn.

Columns and labels:
Assay in all cases: MIC, broth microdilution in Meuller-Hinton broth (NCCLS)
[1] = system: 533 S. epidermidis; assay type: cell-based, Staphylococus epidermidis; conditions: clinical isolate
Protocol: (§1) Antibacterial activity in vitro was investigated by broth microdilution method in Meuller-Hinton broth as recommended by NCCLS. All strains tested were clinical isolates either sensitive or resistant to natural glycopeptides. Results are reported in the tables as MIC (minimal inhibitory concentration) in μg/ml.
(§2) The glycopeptides were tested against a variety of strains, indicated below, including Staphylococus epidermidis, Staphylococus haemolyticus, glycopeptides-intermediate Staphylococus aureus (GISA), glocopeptide-sensitive Enterococcus faecalis (GSE), and glocopeptide-resistant Enterococcus faecalis (GRE). Results are shown in the table as minimum inhibitory concentration (MIC) in units of μg/ml: […]

[2] = system: 602 S. haemolyticus; assay type: cell-based, Staphylococus haemolyticus; conditions: clinical isolate
Protocol: as §1, §2

[3] = system: 3797 S. aureus (GISA); assay type: cell-based, Staphylococus aureus; conditions: glycopeptides-intermediate clinical isolate
Protocol: as §1, §2

[4] = system: 3798 S. aureus (GISA); assay type: cell-based, Staphylococus aureus; conditions: glycopeptides-intermediate clinical isolate
Protocol: as §1, §2

[5] = system: 568 E. faecium (GSE); assay type: cell-based; conditions: glycopeptide-sensitive clinical isolate
Protocol: as §1, §2

[6] = system: 569 E. faecium (GRE); assay type: cell-based; conditions: glycopeptide-resistant clinical isolate
Protocol: as §1, §2

[7] = system: 559 E. faecalis (GSE); assay type: cell-based, Enterococcus faecalis; conditions: glycopeptide-sensitive clinical isolate
Protocol: as §1, §2

[8] = system: 560 E. faecalis (GRE); assay type: cell-based, Enterococcus faecalis; conditions: glycopeptide-resistant clinical isolate
Protocol: as §1, §2

Structure (SMILES)	MIC 533 S. epidermidis [1] [µg/mL]	MIC 602 S. haemolyticus [2] [µg/mL]	MIC 3797 S. aureus (GISA) [3] [µg/mL]	MIC 3798 S. aureus (GISA) [4] [µg/mL]	MIC 568 E. faecium (GSE) [5] [µg/mL]	MIC 569 E. faecium (GRE) [6] [µg/mL]	MIC 559 E. faecalis (GSE) [7] [µg/mL]	MIC 560 E. faecalis (GRE) [8] [µg/mL]
CNC(CC(C)C)C(=O)NC1C(=O)NC(CC(N)=O)C(=O)NC2C(=O)NC3C(=O)NC(C(=O)NC(C(=O)NC4C5CC6CC(C5)CC4C6)c4cc(O)cc(O)c4-c4cc3ccc4O)C(OC3CC(C)(N)C(O)C(C)O3)c3ccc(cc3)Oc3cc2cc(c3OC2OC(CO)C(O)C(O)C2OC2CC(C)(N)C(O)C(C)O2)Oc2ccc(cc2Cl)C1O (centres unmarked) [Compound 213, 2-adamantanamino eremomycin]	0.25 (≈ 0.148 µM)	0.25 (≈ 0.148 µM)	1 (≈ 0.591 µM)	2 (≈ 1.18 µM)	0.5 (≈ 0.296 µM)	4 (≈ 2.37 µM)	0.5 (≈ 0.296 µM)	8 (≈ 4.73 µM)
CNC(CC(C)C)C(=O)NC1C(=O)NC(CC(N)=O)C(=O)NC2C(=O)NC3C(=O)NC(C(=O)NC(C(=O)O)c4cc(O)cc(O)c4-c4cc3ccc4O)C(OC3CC(C)(N)C(O)C(C)O3)c3ccc(cc3)Oc3cc2cc(c3OC2OC(CO)C(O)C(O)C2OC2CC(C)(NC(=O)[C@@H](N)Cc3ccccc3)C(O)C(C)O2)Oc2ccc(cc2Cl)C1O (some centres unmarked) [Compound 230]	4 (≈ 2.35 µM)	4 (≈ 2.35 µM)	>32	>32	2 (≈ 1.17 µM)	>64	2 (≈ 1.17 µM)	>64
CNC(CC(C)C)C(=O)NC1C(=O)NC(CC(N)=O)C(=O)NC2C(=O)NC3C(=O)NC(C(=O)NC(C(=O)O)c4cc(O)cc(O)c4-c4cc3ccc4O)C(OC3CC(C)(N)C(O)C(C)O3)c3ccc(cc3)Oc3cc2cc(c3OC2OC(CO)C(O)C(O)C2OC2CC(C)(NC(=O)CNC(=O)OCC3c4ccccc4-c4ccccc43)C(O)C(C)O2)Oc2ccc(cc2Cl)C1O (centres unmarked) [Compound 221]	–	–	–	–	0.5 (≈ 0.272 µM)	64 (≈ 34.8 µM)	0.5 (≈ 0.272 µM)	>64
CNC(CC(C)C)C(=O)NC1C(=O)NC(CC(N)=O)C(=O)NC2C(=O)NC3C(=O)NC(C(=O)NC(C(=O)O)c4cc(O)cc(O)c4-c4cc3ccc4O)C(O)c3ccc(c(Cl)c3)Oc3cc2cc(c3OC2OC(CO)C(O)C(O)C2OC2CC(C)(NC(=O)CNCc3ccc(-c4ccc(Cl)cc4)cc3)C(O)C(C)O2)Oc2ccc(cc2Cl)C1O (centres unmarked) [Compound 210]	0.13 (≈ 0.0762 µM)	0.25 (≈ 0.146 µM)	1 (≈ 0.586 µM)	1 (≈ 0.586 µM)	0.25 (≈ 0.146 µM)	16 (≈ 9.37 µM)	0.5 (≈ 0.293 µM)	16 (≈ 9.37 µM)
CNC(CC(C)C)C(=O)NC1C(=O)NC(CC(N)=O)C(=O)NC2C(=O)NC3C(=O)NC(C(=O)NC(C(=O)O)c4cc(O)cc(O)c4-c4cc3ccc4O)C(OC3CC(C)(N)C(O)C(C)O3)c3ccc(cc3)Oc3cc2cc(c3OC2OC(CO)C(O)C(O)C2OC2CC(C)(NC(=O)[C@H](N)Cc3ccccc3)C(O)C(C)O2)Oc2ccc(cc2Cl)C1O (some centres unmarked) [Compound 229]	1 (≈ 0.586 µM)	1 (≈ 0.586 µM)	>32	>32	0.25 (≈ 0.147 µM)	>64	0.5 (≈ 0.293 µM)	>64
CCCCCCCCCC(=O)NCC(=O)NC1(C)CC(OC2C(Oc3c4cc5cc3Oc3ccc(cc3Cl)C(O)C(NC(=O)C(CC(C)C)NC)C(=O)NC(CC(N)=O)C(=O)NC5C(=O)NC3C(=O)NC(C(=O)NC(C(=O)O)c5cc(O)cc(O)c5-c5cc3ccc5O)C(OC3CC(C)(N)C(O)C(C)O3)c3ccc(cc3)O4)OC(CO)C(O)C2O)OC(C)C1O (centres unmarked) [Compound 186]	2 (≈ 1.13 µM)	2 (≈ 1.13 µM)	16 (≈ 9.04 µM)	16 (≈ 9.04 µM)	1 (≈ 0.565 µM)	>64	2 (≈ 1.13 µM)	>64
CNC(CC(C)C)C(=O)NC1C(=O)NC(CC(N)=O)C(=O)NC2C(=O)NC3C(=O)NC(C(=O)NC(C(=O)O)c4cc(O)cc(O)c4-c4cc3ccc4O)C(OC3CC(C)(N)C(O)C(C)O3)c3ccc(cc3)Oc3cc2cc(c3OC2OC(CO)C(O)C(O)C2OC2CC(C)(NC(=O)C(N)CCCCN)C(O)C(C)O2)Oc2ccc(cc2Cl)C1O (centres unmarked) [Compound 203]	0.13 (≈ 0.0771 µM)	0.13 (≈ 0.0771 µM)	4 (≈ 2.37 µM)	8 (≈ 4.74 µM)	0.25 (≈ 0.148 µM)	16 (≈ 9.49 µM)	0.25 (≈ 0.148 µM)	>64
CNC(CC(C)C)C(=O)NC1C(=O)NC(CC(N)=O)C(=O)NC2C(=O)NC3C(=O)NC(C(=O)NC(C(=O)O)c4cc(O)cc(O)c4-c4cc3ccc4O)C(OC3CC(C)(N)C(O)C(C)O3)c3ccc(cc3)Oc3cc2cc(c3OC2OC(CO)C(O)C(O)C2OC2CC(C)(NC(=O)CNCc3ccc(C(F)(F)F)cc3)C(O)C(C)O2)Oc2ccc(cc2Cl)C1O (centres unmarked) [Compound 294]	1 (≈ 0.564 µM)	1 (≈ 0.564 µM)	4 (≈ 2.26 µM)	4 (≈ 2.26 µM)	0.5 (≈ 0.282 µM)	>64	0.5 (≈ 0.282 µM)	>64
CNC(CC(C)C)C(=O)NC1C(=O)NC(CC(N)=O)C(=O)NC2C(=O)NC3C(=O)NC(C(=O)NC(C(=O)O)c4cc(O)cc(O)c4-c4cc3ccc4O)C(OC3CC(C)(N)C(O)C(C)O3)c3ccc(cc3)Oc3cc2cc(c3OC2OC(CO)C(O)C(O)C2OC2CC(C)(NC(=O)CNCc3cc4ccccc4c4ccccc34)C(O)C(C)O2)Oc2ccc(cc2Cl)C1O (centres unmarked) [Compound 287]	2 (≈ 1.11 µM)	2 (≈ 1.11 µM)	16 (≈ 8.86 µM)	16 (≈ 8.86 µM)	2 (≈ 1.11 µM)	>64	2 (≈ 1.11 µM)	>64
CCCCCCCCOc1ccc(CNCC(=O)NC2(C)CC(OC3C(Oc4c5cc6cc4Oc4ccc(cc4Cl)C(O)C(NC(=O)C(CC(C)C)NC)C(=O)NC(CC(N)=O)C(=O)NC6C(=O)NC4C(=O)NC(C(=O)NC(C(=O)NC6C7CC8CC(C7)CC6C8)c6cc(O)cc(O)c6-c6cc4ccc6O)C(OC4CC(C)(N)C(O)C(C)O4)c4ccc(cc4)O5)OC(CO)C(O)C3O)OC(C)C2O)cc1 (centres unmarked) [Compound 265]	32 (≈ 16.3 µM)	32 (≈ 16.3 µM)	>32	>32	–	–	–	–
CCCCCCCCOc1ccc(CNCC(=O)NC2(C)CC(OC3C(Oc4c5cc6cc4Oc4ccc(cc4Cl)C(O)C(NC(=O)C(CC(C)C)NC)C(=O)NC(CC(N)=O)C(=O)NC6C(=O)NC4C(=O)NC(C(=O)NC(C(=O)NC(C)C67CC8CC(CC(C8)C6)C7)c6cc(O)cc(O)c6-c6cc4ccc6O)C(OC4CC(C)(N)C(O)C(C)O4)c4ccc(cc4)O5)OC(CO)C(O)C3O)OC(C)C2O)cc1 (centres unmarked) [Compound 266]	16 (≈ 8.02 µM)	32 (≈ 16 µM)	>32	>32	–	–	–	–
CNC(CC(C)C)C(=O)NC1C(=O)NC(CC(N)=O)C(=O)NC2C(=O)NC3C(=O)NC(C(=O)NC(C(=O)O)c4cc(O)cc(O)c4-c4cc3ccc4O)C(OC3CC(C)(N)C(O)C(C)O3)c3ccc(cc3)Oc3cc2cc(c3OC2OC(CO)C(O)C(O)C2OC2CC(C)(NC(=O)CNC(=O)OC34CC5CC(CC(C5)C3)C4)C(O)C(C)O2)Oc2ccc(cc2Cl)C1O (centres unmarked) [Compound 222]	–	–	–	–	1 (≈ 0.558 µM)	>64	2 (≈ 1.12 µM)	>64
